Test results from US12612401B2, “Crystalline forms of an S1P receptor modulator” (Oppilan Pharma Limited, priority 2022, dated 2026).
One block for each compound: values may come before it.

Experiments:
human S1P1 = molecular target: T1, human S1P1 (Homo sapiens, UniProt P21453); test: GTPγS binding assay (scintillation proximity assay); type: biochemical; conditions: S1P1 membrane from CHO cells expressing full-length human S1P1; GTPγ35S, 60 minutes
T1 construct: CHO-Ki Gαqi5 cells expression full-length human S1P1; expressed in transfected cells; host or cells: CHO-K1 Gαqi5 cells (printed 'CHO-Ki Gαqi5'), membranes
T1 sequence (P21453 whole entry): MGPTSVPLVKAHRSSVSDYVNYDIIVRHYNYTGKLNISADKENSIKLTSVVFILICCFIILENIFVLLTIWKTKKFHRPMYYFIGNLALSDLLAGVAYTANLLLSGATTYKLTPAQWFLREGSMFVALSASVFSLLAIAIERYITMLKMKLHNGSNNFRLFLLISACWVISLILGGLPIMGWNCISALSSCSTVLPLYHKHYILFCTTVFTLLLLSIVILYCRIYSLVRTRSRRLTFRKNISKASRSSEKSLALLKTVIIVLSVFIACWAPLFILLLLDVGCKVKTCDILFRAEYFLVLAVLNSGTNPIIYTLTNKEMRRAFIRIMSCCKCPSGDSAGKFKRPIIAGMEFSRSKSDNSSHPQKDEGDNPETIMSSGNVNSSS
Method: S1P1 membrane is prepared from CHO-Ki Gαqi5 cells expression full-length human S1P1. Scintillation proximity assay (SPA) is performed by incubating membranes, GTPγ^35S, and compounds at various concentrations for 60 minutes. Wheat germ agglutinin-coated SPA beads are added and incubated for 60 minutes before centrifugation and scintillation counting. EC50 data for Compound 1 found to be <1 μM.

[1] = Stability study of Form 1 on storage (XRPD and HPLC); type: physicochemical; conditions: 80° C. for one day; 25° C./60% RH and 40° C./75% RH for one week and one month
Method: Physicochemical stability was evaluated for Form 1 via storing samples under 80° C. for one day, 25° C./60% RH and 40° C./75% RH for one week and one month.

[2] = Critical water activity study between Form 1 and Form 7; type: physicochemical; conditions: for XRPD result after slurry: RT, overnight
Excerpt: Critical water activity between anhydrous From 1 and hydrous Form 7 was investigated via slurry in MeOH/H2O system with various water activities at room temperature. After stirring overnight, the solids were isolated and analyzed by XRPD.

[3] = Thermodynamic stability relationship of anhydrates (heating; slurry competition); type: physicochemical; conditions: for XRPD result, slurry competition Form 6 and Form 1: five days
Method: As a result, slurry competition was performed for Form 6 and Form 1 in acetone and THF systems at 5° C., RT and 50° C. After stirring at desired temperature for five days, the solids were isolated and analyzed by XRPD.

[4] = Solubility evaluation of Form 1 and Form 2 in DCM/MeOH; type: physicochemical; conditions: for concentration dissolved in DCM/MeOH: room temperature or 50° C.
Method: The solubility of Form 1 and Form 2 was evaluated in the same vehicle. Form 1 or Form 2 was added into DCM/MeOH and stirred to dissolve at room temperature or 50° C. A certain amount of HPMC-AS was then added into solution at room temperature, if a clear solution was obtained. Form 2 dissolved in DCM/MeOH at a concentration of 13 mg/mL, while Form 1 dissolved in a lower concentration, 10 mg/mL.

[5] = Dynamic vapor sorption (DVS); type: physicochemical; conditions: 25° C.
Method: DVS studies were performed using a DVS Intrinsic (SMS, UK). 10 to 20 mg of compound was transferred into the DVS and the weight change recorded with respect to a varying atmospheric humidity at 25° C. using the following parameters: • Drying at 25° C. until dm/dt<±0.002%/min • Min time: 10 min, Max time: 180 min • Equilibrium: 60 min • Cycle: 0, 5, 10, 20, 30, 40, 50, 60, 70, 80, 90, 80, 70, 60, 50, 40, 30, 20, 10, 5, 0 • Characterize the sample after the DVS experiment by XRPD

[6] = Form 2 stability via slurry in acetone and methanol/water; type: physicochemical; conditions: solids isolated at 1 h, 3 h, 5 h, 29 h
Method: Form 2 stability was also evaluated via slurry in acetone and methanol/water at RT. Solids were isolated at 1 h, 3 h, 5 h and 29 h time points.

Result (dissolution), Experiment A ([4]; DCM 3.679 g, MeOH 0.752 g, Form 2 0.05 g, HPMC-AS 0.150 g): Clear at room | solubility compared with Form 1 ([4]; DCM/MeOH vehicle): better solubility than Form 1 | concentration dissolved in DCM/MeOH [4]: 13000 µg/mL
Structure (SMILES): O=C1CC[C@@H](Oc2cc(Cl)c(-c3noc(-c4cn5cc(C(F)(F)F)cc(Cl)c5n4)n3)cc2Cl)CN1 [Form 2, (R)-5-(2,5-dichloro-4-(5-(8-chloro-6-(trifluoromethyl)imidazo[1,2-a]pyridin-2-yl)-1,2,4-oxadiazol-3-yl)phenoxy)piperidin-2-one]
XRPD analysis after slurry ([6]; slurry in acetone at RT): Form 1 formation in both solvents within one hour | XRPD analysis after slurry ([6]; slurry in methanol/water at RT): Form 1 formation in both solvents within one hour

form change during heating ([3]; heating, exothermic signal observed): Form 6 formed at elevated temperature
Structure (SMILES): O=C1CC[C@@H](Oc2cc(Cl)c(-c3noc(-c4cn5cc(C(F)(F)F)cc(Cl)c5n4)n3)cc2Cl)CN1 [Form 5, (R)-5-(2,5-dichloro-4-(5-(8-chloro-6-(trifluoromethyl)imidazo[1,2-a]pyridin-2-yl)-1,2,4-oxadiazol-3-yl)phenoxy)piperidin-2-one]

XRPD result after slurry ([2]; MeOH/H2O 0:1000, Aw 1.0): Form 1 | XRPD result after slurry ([2]; MeOH/H2O 219:781, Aw 0.9): Form 1 | XRPD result after slurry ([2]; MeOH/H2O 418:582, Aw 0.8): Form 1 | XRPD result after slurry ([2]; MeOH/H2O 573:427, Aw 0.7): Form 1 | XRPD result after slurry ([2]; MeOH/H2O 687:313, Aw 0.6): Form 1 | XRPD result after slurry ([2]; MeOH/H2O 775:225, Aw 0.5): Form 1 | XRPD result after slurry ([2]; MeOH/H2O 844:156, Aw 0.4): Form 1 | XRPD result after slurry ([2]; MeOH/H2O 893:107, Aw 0.3): Form 1 | XRPD result after slurry ([2]; MeOH/H2O 937:63, Aw 0.2): Form 1 | XRPD result after slurry ([2]; MeOH/H2O 1000:0, Aw 0.0): Form 1 | form conversion in MeOH/H2O slurry ([2]; all water activities at RT, stirring overnight): converted to Form 1
Structure (SMILES): O=C1CC[C@@H](Oc2cc(Cl)c(-c3noc(-c4cn5cc(C(F)(F)F)cc(Cl)c5n4)n3)cc2Cl)CN1 [Form 7, (R)-5-(2,5-dichloro-4-(5-(8-chloro-6-(trifluoromethyl)imidazo[1,2-a]pyridin-2-yl)-1,2,4-oxadiazol-3-yl)phenoxy)piperidin-2-one]

More lines, now with the values behind:

Structure (SMILES): O=C1CC[C@@H](Oc2cc(Cl)c(-c3noc(-c4cn5cc(C(F)(F)F)cc(Cl)c5n4)n3)cc2Cl)CN1 [Compound 1, (R)-5-(2,5-dichloro-4-(5-(8-chloro-6-(trifluoromethyl)imidazo[1,2-a]pyridin-2-yl)-1,2,4-oxadiazol-3-yl)phenoxy)piperidin-2-one]
EC50 (human S1P1): < 1000 nM

Structure (SMILES): O=C1CC[C@@H](Oc2cc(Cl)c(-c3noc(-c4cn5cc(C(F)(F)F)cc(Cl)c5n4)n3)cc2Cl)CN1 [Form 1, (R)-5-(2,5-dichloro-4-(5-(8-chloro-6-(trifluoromethyl)imidazo[1,2-a]pyridin-2-yl)-1,2,4-oxadiazol-3-yl)phenoxy)piperidin-2-one]
change in HPLC purity after storage (chemical stability) [1]: no substantial change in HPLC purity | form change after storage (XRPD) [1]: no form change | relative stability versus Form 7 ([2]; MeOH/H2O slurry, water activities 0.0-1.0, RT): more stable under selected conditions | XRPD result, slurry competition Form 6 and Form 1 ([3]; THF, 5° C.): Form 1 | XRPD result, slurry competition Form 6 and Form 1 ([3]; THF, 50° C.): Form 1 | XRPD result, slurry competition Form 6 and Form 1 ([3]; THF, room temperature): Form 1 | XRPD result, slurry competition Form 6 and Form 1 ([3]; acetone, 5° C.): Form 1 | XRPD result, slurry competition Form 6 and Form 1 ([3]; acetone, 50° C.): Form 1 | XRPD result, slurry competition Form 6 and Form 1 ([3]; acetone, room temperature): Form 1 | Result (dissolution on heating), Experiment E ([4]; DCM 1.633 g, MeOH 0.334 g, Form 1 0.0165 g, AcOH 0.0022 g, HPMC-AS 0.0549 g): Dissolved at 50 °C | Result (clarity after stirring for 64 h), Experiment E ([4]; DCM 1.633 g, MeOH 0.334 g, Form 1 0.0165 g, AcOH 0.0022 g, HPMC-AS 0.0549 g, after stirring for 64 h): Clear at 25 °C after | Result (dissolution), Experiment C ([4]; DCM 1.633 g, MeOH 0.334 g, Form 1 0.02 g, AcOH 0.0022 g, HPMC-AS 0.0664 g): Hazy at 50 °C | Result (dissolution on heating), Experiment D ([4]; DCM 4.083 g, MeOH 0.834 g, Form 1 0.0414 g, HPMC-AS 0.1378 g): Dissolved at 50 °C | Result (clarity after stirring for 64 h), Experiment D ([4]; DCM 4.083 g, MeOH 0.834 g, Form 1 0.0414 g, HPMC-AS 0.1378 g, after stirring for 64 h): Clear at 25 °C after | Result (dissolution), Experiment B ([4]; DCM 4.083 g, MeOH 0.835 g, Form 1 0.05 g, HPMC-AS 0.166 g): Hazy at 50 °C | concentration dissolved in DCM/MeOH [4]: 10000 µg/mL | hygroscopicity ([5]; DVS): slightly hygroscopic | Post-DVS analysis by XRPD ([5]; after DVS cycle 0-90-0% RH): no change | moisture uptake ([5]; between 0-80% RH): 0.3%

Structure (SMILES): O=C1CC[C@@H](Oc2cc(Cl)c(-c3noc(-c4cn5cc(C(F)(F)F)cc(Cl)c5n4)n3)cc2Cl)CN1 [Form 6, (R)-5-(2,5-dichloro-4-(5-(8-chloro-6-(trifluoromethyl)imidazo[1,2-a]pyridin-2-yl)-1,2,4-oxadiazol-3-yl)phenoxy)piperidin-2-one]
thermodynamic relationship to Form 5 ([3]; according to the Burger-Ramberger Rules): monotropically related to Form 5 and is thermodynamically more stable
